Results as given in US5488110A, “Highly water soluble bis-naphthalimides useful as anticancer agents” (The Du Pont Merck Pharmaceutical Company, priority 1994, dated 1996).
In brackets after ≈: the same amount, converted by molar mass. Entries after “also recorded” stand apart in the source; their conditions may differ.

Experiments:
[1] = test system: murine leukemia L1210 cells; test: In vitro Growth Inhibitory Activity (MTT, 3 days); type: cell-based; conditions: Mus musculus, 72 h, 3 days at 37° C., read-out: ID50 (the source's name)
Experimental: L1210 cells were maintained in RPMI=1640 a medium supplemented with 10% heat inactivated fetal bovine serum and […] (RPMI-L). B16 cells were maintained in RPMI-1640 medium supplemented with 15% heat inactivated fetal bovine serum and antiobiotics (RPMI-C).
Exponential growing murine leukemia L1210 cells (1×10^3 cells) in 0.1 mL medium were seeded on day 0 in a 96-well microtiter plate. On day 1, 0.1 mL aliquot of medium containing graded concentrations of test analogs was added to the initial volume. After incubation at 37° C. in a humidified incubator for 3 days, the plates were centrifuged briefly and 0.1 mL of the growth medium was removed. Cell cultures were incubated with 50 μL of 3-(4,5-dimethylthiazol-2-yl)-2,5- diphenyltetrazolium bromide (MTT; 1 mg/ml in Dulbecco's phosphate buffer saline) for 4 hours at 37° C. The resulting purple formazan precipitate was solubilized with 0.2 mL of 0.04N HCl in isopropyl alcohol. Absorbance was read in a Titertek Multiskan MCC scaning well spectrophotometer (Flow Laboratories) at a test wavelength of 570 nm and a reference wavelength of 630 nm.
The ID50 values were determined by a computer program that fit all of the data (8 determinations per concentration and 12 concentrations per test analog) to the following equation:
Y=((Am-Ao)/(1+(X/ID50)n))+Ao
where: Am=absorbance of the control cells; Ao=absorbance of the cells in the presence of highest drug concentration; Y=observed absorbance; X=drug concentration; ID50 =dose of drug that inhibits the growth of cells to one half that of the control cells.

[2] = test system: MX-1 human breast tumor; test: In Vivo Human Tumor Xenograft Model, MX-1; set-up: species or system human (xenografted in nude mice); conditions: nude mice, i.v. once daily for nine consecutive days; NCI criteria
Source text: (§1) The DLD-2 human colon tumor, MX-1 human mammary carcinoma, and LX-1 human lung tumor were originally obtained from a surgically removed primary colon carcinoma, breast tumor, and non-small lung carcinoma, respectively. The human tumor lines were maintained by serial passage in athymic nude mice. The MX-1 human mammary carcinoma and LX-1 human lung tumor are established tumors used by the NCI. The DLD-2, MX-1, and LX-1 tumor models have been well characterized.
(§2) The mice used in these experiments were outbred Swiss mice or BALB/c mice bearing the nude (nu/nu) gene. On day 0 male and female mice weighing 22-30 g are inoculated with 0.2 mL of a 25% tumor mince. […] Tumor measurements and body weights are recorded once a week. […]
(§3) The efficacy of the test compounds is determined by the extent of tumor growth inhibition in treated versus vehicle-treated control mice. Initial tumor weights (mg) are calculated from the tumor dimensions (mm) measured from caliper measurements, using the formula for a prolate ellipsoid (mg of tumor weight=(length×width^2)/2). Net tumor weights are calculated for each of the treated groups and the vehicle-treated control group by subtracting the initial tumor weight from the final tumor weight on day 15. Results are expressed as a percentage decrease relative to the mean tumor weight for the control vehicle-treated group. […]

[3] = UV Method For Determining Water Solubility; type: physicochemical; conditions: for solubility: water, room temperature, saturated solution standing over excess sample 15 to 20 hours, UV
Experimental: UV Method For Determining Water Solubility:
The ultraviolet spectrum is taken at room temperature of a saturated solution of the sample (saturated solution being defined as a water solution standing over excess sample for 15 to 20 hours with no heat being applied). A standard solution of the sample is obtained in water if possible. When the solubility in water is too low to do this (<1 mg/100 ml), a mg of the sample is dissolved in DMSO and diluted to 100 ml with water. Molar or gram extinction coefficients are calculated for the standard solutions and these values are used to determine the concentration of the saturated solution.

[4] = test system: DLD-2 human colon tumor; test: In Vivo Human Tumor Xenograft Model, DLD-2; set-up: species or system human (xenografted in nude mice); conditions: nude mice, i.v. once daily for nine consecutive days; NCI criteria
Source text: as §1
The mice used in these experiments were outbred Swiss mice or BALB/c mice bearing the nude (nu/nu) gene. On day 0 male and female mice weighing 22-30 g are inoculated with 0.2 mL of a 25% tumor mince. This mince is prepared by mincing fresh tumor tissue, grown subcutaneously in passage mice, in sterile physiological saline. Palpable tumors weighing approximately 50 mg appear in the mice within 7-10 days after inoculation. The mice are pair matched by tumor weight and sex into groups of ten each and the test compounds and vehicle control are administered intravenously (i.v.) once daily for nine consecutive days. A >20% decrease in body weight on day 5 following compound administration is considered an indication of toxicity. Tumor measurements and body weights are recorded once a week. Fifteen to 18 days after the initial injection the mice are weighed, sacrificed and the tumors excised and weighed.
as §3, with “group. [formula] Activity Criteria” for “group.”

[5] = test system: LX-1 human lung tumor; test: In Vivo Human Tumor Xenograft Model, LX-1; set-up: species or system human (xenografted in nude mice); conditions: nude mice, i.v. once daily for nine consecutive days; NCI criteria
Source text: as §1, §2, §3

Compound	IC50 [1] [µg/mL]	activity against MX-1 human breast tumor in vivo (tumor growth inhibition) [2]	water solubility (in words) ([3]; in words, relative to related compounds)	solubility [3] [µg/mL]	activity against DLD-2 human colon tumor in vivo (tumor growth inhibition) [4]	activity against LX-1 human lung tumor in vivo (tumor growth inhibition) [5]
CN(CCN(C)CCN1C(=O)c2cccc3cc([N+](=O)[O-])cc(c23)C1=O)CCN1C(=O)c2cccc3cc([N+](=O)[O-])cc(c23)C1=O [Example 1, 2,2'-[1,2-Ethanediylbis(methylimino-2,1-ethanediyl)]-bis[5-nitro-1H-benz[de]isoquinoline-1,3(2H)-dione]methanesulfonate (1:2)]	0.0115 (≈ 0.0184 µM)	good to excellent (inhibition of ≥90% is considered good to excellent activity)	unexpected increased water solubility; also recorded: dramatic unexpected increase in water solubility	> 26400	excellent to outstanding	
CN(CCNCCN1C(=O)c2cccc3cc([N+](=O)[O-])cc(c23)C1=O)CCN1C(=O)c2cccc3cc([N+](=O)[O-])cc(c23)C1=O [Example 2, 2-[2-[N-methyl-N-[2-[[2-(5-nitro-1,2-dioxo-1H-benz[de]isoquinoline-2(3H)-yl)ethyl]amino]ethyl]amino]ethyl]-5-nitro-1H-benz[de]isoquinoline-1,3(2H)-dione methanesulfonate (1:2)]	< 0.01			9600	excellent to outstanding	
O=C1c2cccc3cc([N+](=O)[O-])cc(c23)C(=O)N1CCNCCNCCN1C(=O)c2cccc3cc([N+](=O)[O-])cc(c23)C1=O [Example 3, 2,2'-[1,2-Ethanediylbis(imino-2,1-ethanediyl)]-bis[5-nitro-1H-benz[de]isoquinoline-1,3(2H)-dione]methanesulfonate (1:2)]	0.009 (≈ 0.0151 µM)	excellent to outstanding		600 (≈ 1010 µM)	excellent to outstanding	moderate (Tumor growth inhibition of 58-89% in the DLD-2 assay is considered moderate activity)
